Measured values published in the supplement of paper PMC10307832.

Assays:
Assay in all cases: relative viability (nuclei count vs DMSO), 5 days (fraction); higher = more cells survive
201T = test system: 201T
Summary of the method: (§1)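 Five library-drug doses in √10 steps were combined with a fixed anchor-drug dose, or a single drug was given alone, by pin tool to lung cancer cell lines in 1536-well plates the day after seeding. Nuclei were stained and counted after 5 days. Relative viability is the nuclei count in treated wells over that in vehicle wells, taken as the median of duplicate plates.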

NCI-H727 = test system: NCI-H727
Summary of the method: as §1

NCI-H460 = test system: NCI-H460
Summary of the method: as §1

PC-3 [JPC-3] = test system: PC-3 [JPC-3]
Summary of the method: as §1

CAL-12T = test system: CAL-12T
Summary of the method: as §1

LK-2 = test system: LK-2
Summary of the method: as §1

HCC-15 = test system: HCC-15
Summary of the method: as §1

NCI-H1651 = test system: NCI-H1651
Summary of the method: as §1

NCI-H322M = test system: NCI-H322M
Summary of the method: as §1

NCI-H358 = test system: NCI-H358
Summary of the method: as §1

HCC-44 = test system: HCC-44
Summary of the method: as §1

NCI-H838 = test system: NCI-H838
Summary of the method: as §1

SW 900 = test system: SW 900
Summary of the method: as §1

EMC-BAC-2 = test system: EMC-BAC-2
Summary of the method: as §1

ABC-1 = test system: ABC-1
Summary of the method: as §1

NCI-H522 = test system: NCI-H522
Summary of the method: as §1

LU99A = test system: LU99A
Summary of the method: as §1

EKVX = test system: EKVX
Summary of the method: as §1

BEN = test system: BEN
Summary of the method: as §1

Cc1csc(=NC2CCCCC2)n1/N=C/c1ccc(O)c(O)c1O [MIM1] + NC(=O)Nc1cc(-c2cccc(F)c2)sc1C(=O)N[C@H]1CCCNC1 [AZD7762] (partner 0.2 µM)
relative viability (201T; first compound 0.2 µM): 0.62
relative viability (201T; first compound 0.6325 µM): 0.691
relative viability (201T; first compound 2 µM): 0.588
relative viability (201T; first compound 6.325 µM): 0.453
relative viability (201T; first compound 20 µM): 0.305
relative viability (NCI-H727; first compound 0.2 µM): 0.663
relative viability (NCI-H727; first compound 0.6325 µM): 0.573
relative viability (NCI-H727; first compound 2 µM): 0.435
relative viability (NCI-H727; first compound 6.325 µM): 0.528
relative viability (NCI-H727; first compound 20 µM): 0.348
relative viability (NCI-H460; first compound 0.2 µM): 0.538
relative viability (NCI-H460; first compound 0.6325 µM): 0.629
relative viability (NCI-H460; first compound 2 µM): 0.526
relative viability (NCI-H460; first compound 6.325 µM): 0.251
relative viability (NCI-H460; first compound 20 µM): 0.0582
relative viability (PC-3 [JPC-3]; first compound 0.2 µM): 0.899
relative viability (PC-3 [JPC-3]; first compound 0.6325 µM): 0.801
relative viability (PC-3 [JPC-3]; first compound 2 µM): 0.719
relative viability (PC-3 [JPC-3]; first compound 6.325 µM): 0.724
relative viability (PC-3 [JPC-3]; first compound 20 µM): 0.751
relative viability (CAL-12T; first compound 0.2 µM): 0.527
relative viability (CAL-12T; first compound 0.6325 µM): 0.575
relative viability (CAL-12T; first compound 2 µM): 0.605
relative viability (CAL-12T; first compound 6.325 µM): 0.436
relative viability (CAL-12T; first compound 20 µM): 0.332
relative viability (LK-2; first compound 0.2 µM): 0.423
relative viability (LK-2; first compound 0.6325 µM): 0.287
relative viability (LK-2; first compound 2 µM): 0.333
relative viability (LK-2; first compound 6.325 µM): 0.324
relative viability (LK-2; first compound 20 µM): 0.25
relative viability (HCC-15; first compound 0.2 µM): 1.2
relative viability (HCC-15; first compound 2 µM): 1.23
relative viability (HCC-15; first compound 6.325 µM): 0.808
relative viability (HCC-15; first compound 20 µM): 0.179
relative viability (NCI-H1651; first compound 0.2 µM): 0.464
relative viability (NCI-H1651; first compound 0.6325 µM): 0.434
relative viability (NCI-H1651; first compound 2 µM): 0.425
relative viability (NCI-H1651; first compound 6.325 µM): 0.429
relative viability (NCI-H1651; first compound 20 µM): 0.503
relative viability (NCI-H322M; first compound 0.2 µM): 0.564
relative viability (NCI-H322M; first compound 0.6325 µM): 0.652
relative viability (NCI-H322M; first compound 2 µM): 0.446
relative viability (NCI-H322M; first compound 6.325 µM): 0.455
relative viability (NCI-H322M; first compound 20 µM): 0.439
relative viability (NCI-H358; first compound 0.2 µM): 0.496
relative viability (NCI-H358; first compound 0.6325 µM): 0.512
relative viability (NCI-H358; first compound 2 µM): 0.468
relative viability (NCI-H358; first compound 6.325 µM): 0.342
relative viability (NCI-H358; first compound 20 µM): 0.231
relative viability (HCC-44; first compound 0.2 µM): 0.985
relative viability (HCC-44; first compound 0.6325 µM): 0.985
relative viability (HCC-44; first compound 2 µM): 0.961
relative viability (HCC-44; first compound 6.325 µM): 0.947
relative viability (HCC-44; first compound 20 µM): 0.521
relative viability (NCI-H838; first compound 0.2 µM): 0.868
relative viability (NCI-H838; first compound 0.6325 µM): 0.947
relative viability (NCI-H838; first compound 2 µM): 0.751
relative viability (NCI-H838; first compound 6.325 µM): 0.84
relative viability (NCI-H838; first compound 20 µM): 0.691
relative viability (SW 900; first compound 0.2 µM): 0.669
relative viability (SW 900; first compound 0.6325 µM): 0.615
relative viability (SW 900; first compound 2 µM): 0.592
relative viability (SW 900; first compound 6.325 µM): 0.296
relative viability (SW 900; first compound 20 µM): 0.19
relative viability (EMC-BAC-2; first compound 0.2 µM): 1.12
relative viability (EMC-BAC-2; first compound 0.6325 µM): 0.776
relative viability (EMC-BAC-2; first compound 2 µM): 1.09
relative viability (EMC-BAC-2; first compound 6.325 µM): 0.999
relative viability (EMC-BAC-2; first compound 20 µM): 0.314
relative viability (ABC-1; first compound 0.2 µM): 0.664
relative viability (ABC-1; first compound 0.6325 µM): 0.896
relative viability (ABC-1; first compound 2 µM): 0.814
relative viability (ABC-1; first compound 6.325 µM): 0.788
relative viability (ABC-1; first compound 20 µM): 0.341
relative viability (NCI-H522; first compound 0.2 µM): 0.891
relative viability (NCI-H522; first compound 0.6325 µM): 0.957
relative viability (NCI-H522; first compound 2 µM): 0.824
relative viability (NCI-H522; first compound 6.325 µM): 0.78
relative viability (NCI-H522; first compound 20 µM): 0.511
relative viability (LU99A; first compound 0.2 µM): 0.364
relative viability (LU99A; first compound 0.6325 µM): 0.265
relative viability (LU99A; first compound 2 µM): 0.258
relative viability (LU99A; first compound 6.325 µM): 0.218
relative viability (LU99A; first compound 20 µM): 0.0782
relative viability (EKVX; first compound 0.2 µM): 0.697
relative viability (EKVX; first compound 0.6325 µM): 0.616
relative viability (EKVX; first compound 2 µM): 0.625
relative viability (EKVX; first compound 6.325 µM): 0.599
relative viability (EKVX; first compound 20 µM): 0.44
relative viability (BEN; first compound 0.2 µM): 0.781
relative viability (BEN; first compound 0.6325 µM): 0.645
relative viability (BEN; first compound 2 µM): 0.67
relative viability (BEN; first compound 6.325 µM): 0.707
relative viability (BEN; first compound 20 µM): 0.336
